# Measurements from US20240400572A1, “COMPOUNDS AND METHODS FOR TREATING CANCERS THAT ARE MGMT DEFICIENT REGARDLESS OF MMR STATUS” (Yale University, priority 2021, published 2024).
# Assays:
# [1] = system: DLD1 BRCA2+/− and BRCA2−/− cells; assay: Short-term cell viability assay in DLD1 isogenic model; assay type: cell-based, human
# Method: (§1) FIGS. Z4A-Z4I. KL-50 (4a) activates DNA damage response pathways and cycle arrest in MGMT− cells, independent of MMR, and induces sensitivity in cells deficient in ICL or HR repair. (FIGS. Z4A, Z4B, and Z4C) Phospho-SER139-H2AX (γH2AX) (A), 53BP1 (FIG. Z4B), and phospo-SER33-RPA2 (pRPA) (FIG. Z4C) foci formation quantified by % cells with 10 foci in LN229 MGMT+/−, MMR+/− cells treated with 0.1% DMSO control, 20 μM KL-50 (4a), or 20 μM TMZ (1a) for 48 h. Columns, mean; error bars, SD; n≥5 technical replicates. Additional time course data is presented in FIG. ZS6B to D. (FIG. Z4D) Representative foci images of data in (FIG. Z4A) to (FIG. Z4C). (FIG. Z4E) Percentage of cells in G1, S, and G2 cell cycle phases after treatment as in (A) to (C), measured using integrated nuclear (Hoechst) staining intensity. Columns, mean; error bars, SD; n=3 independent analyses. (FIG. Z4F) Change in percent cells with 1 micronuclei from baseline (DMSO control) after treatment as in (FIG. Z4A) to (FIG. Z4C). Columns, mean; error bars, SD; […] technical replicates; **** p<0.0001; ns, not significant. Additional validation is presented in FIG. ZS9, A and B. (FIG. Z4G) Short-term viability assay curves for KL-50 (4a) in PD20 cells, deficient in FANCD2 (FANCD2−/−) or complemented with FANCD2 (+FANCD2). (FIG. Z4H) Short-term viability assay curves for KL-50 (4a) in PEO4 (BRCA2+) and PEO1 (BRCA2−/−) cells pre-treated with 0.01% DMSO control or 10 μM O^6BG (+O^6BG) for 1 h prior to KL-50 (4a) addition. (FIG. Z4I) Short-term viability assay curves for KL-50 (4a) in DLD1 BRCA2+/− and BRCA2−/− cells pre-treated with 0.01% DMSO control or 10 μM O^6BG (+O^6BG) for 1 h prior to KL-50 (4a) addition. For (FIG. Z4G), (FIG. Z4H), and (FIG. Z4I), points, mean; error bars, SD; n=3 technical replicates.
# Short-term Cell Viability Assay. Cells were seeded in 96-well plates at 1000 or 2000 cells/well and allowed to adhere at 23° C. for 60 min and then incubated overnight at 37° C. Cells were treated with indicated concentrations of compounds in triplicate for 4-6 days prior to fixation with 3.7% paraformaldehyde and nuclear staining with 1 μg/mL Hoechst 33342 dye. Cells were imaged on a Cytation 3 imaging reader (BioTek) and quantified using CellProfiler software.
# [2] = system: PD20 cells, FANCD2−/− or +FANCD2; assay: Short-term cell viability assay in FANCD2 model; assay type: cell-based, human; conditions: PD20 FANCD2−/− versus +FANCD2
# Method: as §1
# Short-term Cell Viability Assay. Cells were seeded in 96-well plates at 1000 or 2000 cells/well and allowed to adhere at 23° C. for 60 min and then incubated overnight at 37° C. […] Cells were imaged on a Cytation 3 imaging reader (BioTek) and quantified using CellProfiler software.
structure (smiles),measurement,setting,value
"NC(=O)c1ncn2c(=O)n(CCF)nnc12 [KL-50, 3-(2-fluoroethyl)-4-oxo-3H,4H-imidazo[4,3-d][1,2,3,5]tetrazine-8-carboxamide]",sensitivity of BRCA2-deficient cells (in words),"[1]; DLD1 BRCA2−/− versus BRCA2+/−, ± 10 μM O^6BG",BRCA2 loss enhanced the toxicity
same,therapeutic index (TI),[1]; ratio of IC50 values in MGMT+/BRCA2+ cells compared to MGMT−/BRCA2− cells,~600 fold
same,sensitivity of FANCD2-deficient cells (in words),[2],hypersensitive
